One assay concerns H1299. The assay is described as follows: Inhibition of tumor cell growth method (a), sulforhodamine B assay. In kind it is cell-based. The note with it: Homo sapiens, NCI-H1299; H1299, 72 hours, SRB. As to the method:
(§1) The plates were incubated at 37° C. in an atmosphere composed of 95% air and 5% CO2 for 72 hours. The culture medium was then removed and the cells were fixed by addition of 50 μL of a 10% solution of trichloroacetic acid in water at 4° C. in each well. The plates were incubated at 4° C. for at least one hour, after which the colorimetric assay of sulforhodamine B (SRB) was carried out to determine the amount of biomass remaining in each well as described in previously developed methodologies [Vichai, V.; Kirtikara, K. Nat. Protoc. […] Briefly, the plates were washed several times with water and dried prior to the addition of 50 μL of a solution of dye sulforhodamine B (composed by 0.057% weight/weight of sulforhodamine B in 1% acetic acid) to each well. After 30 minutes of incubation, the unbound dye was removed by washing six times with 1% acetic acid. […] After an incubation period of 30 minutes, the absorbance in each well was read at a wavelength of 510 nm in a microplate reader. The cells treated only with vehicle consisting of a 1% solution of DMSO (vehicle) were used as control of 100% of live cells in the biomass and the wells incubated with the vehicle alone (without cells) were used to determine the baseline (0%) of live biomass. The IC50 values were calculated using the software SoftMax Pro (Molecular Devices, Sunnyvale, Calif.).
On the technique in general: In SRB staining, fixed cells bind dye roughly in proportion to their protein.

The test system of a further assay is H226. The description is as above. To be noted: Homo sapiens, NCI-H226; H226, 72 hours, SRB. In kind it is cell-based. As to the method: as §1
A further assay deals with HeLa. The assay is described as above. The note with it: Homo sapiens, 72 hours, SRB. The format is cell-based. As to the method:
as §1

For another assay, the system named is IGROV-1. The assay is described as above. The format is cell-based. To be noted: Homo sapiens; IGROV-1, 72 hours, SRB. The procedure:
as §1

For a further assay, the system named is MCF-7. Described as above. The format is cell-based. The note with it: Homo sapiens, MCF7; MCF-7, 72 hours, SRB. As to the method: as §1
In the next assay the test system is A549 cells. Kind of assay: Inhibition of tumor cell growth method (b), CellTiter-Glo. The format is cell-based. The note with it: Homo sapiens, A549, 72 h. An excerpt: (§2) CellTiter-Glo® Luminescent Cell Viability Assay (Promega) is a homogeneous method of determining the number of viable cells in culture based on quantitation of the present ATP, which indicates the presence of metabolically active cells. The homogeneous assay procedure involves addition of a single reagent (CellTiter-Glo® Reagent) directly to the cells, which leads to cell lysis and generation of a luminescent signal proportional to the amount of the ATP and the number of cells present in culture. The assay relies on the properties of a proprietary thermostable luciferase (Ultra-Glo® recombinant luciferase), which generates a luminescent signal.
(§3) After 72 h, a volume of CellTiter-Glo® Reagent equal to the volume of cell culture medium was added. The content was mixed for 2 min to induce cell lysis. The luminescence was recorded after further 10 min at RT in order to obtain a stable luminescent signal.
(§4) The IC50 was calculated using GraphPad Software.
In general terms: In ATP-based viability assays light output follows the ATP content of the culture.

A further assay has as its system H1975. Described as above. In kind it is cell-based. To be noted: Homo sapiens, NCI-H1975, H1975, 72 h.
From the text: as §2, §3, §4

The test system of another assay is HeLa cells. Kind of assay: Determination of cellular production of lactate (GC/MS). To be noted: 8 hours, concentrations from 50 to 200 μM, comparable or superior to 2-DeoxGlu at 10 mM. The format is cell-based.
A further assay deals with T1, hLDH5 (LDH-A) (Homo sapiens, UniProt P00338).
T1 construct: purchased LEEBIO (USA)
The assay is described as follows: Enzyme inhibition of human lactate dehydrogenase isoform 5. In kind it is biochemical. To be noted: ranges of values, pH 7.4; for Ki: 37° C., read-out: inhibitory activity against hLDH5 (Ki). As to the method: The compounds described in the examples were evaluated in enzymatic assays to assess its inhibitory properties against two human isoforms of lactate dehydrogenase, hLDH5 containing solely the subunit LDH-A (LEEBIO—USA), and the hLDH1 containing only the LDH subunits-B (Sigma Aldrich, USA), in order to verify the selectivity of these compounds.
(for Ki measurements). Such assays were conducted in cells containing 200 μL of a solution comprising the reagents dissolved in phosphate buffer (KH2PO4 and K2HPO4) at pH 7.4.
IC50 values were calculated as described below. […] Seven different concentrations (in duplicate for each concentration) of compound were used to generate a concentration-response curve. […] Compound solutions were dispensed in 96-well plates (8 μL), then substrate and cofactor dissolved in buffer (152 μl) and enzyme solution (40 μl) were finally added. Dilution of the enzyme stock solution was made to allow a 10% consumption of the cofactor after 15 min. The eventual background fluorescence of the tested compounds or quenching of the NADH fluorescence by the tested compounds was subtracted. In addition to the compound test wells, each plate contained maximum and minimum controls. Assay plates were incubated at room temperature for 15 min and the final measurements were performed using Victor X3 Microplates reader (PerkinElmer®) at a fluorescence emission wavelength of 460 nm (excitation at 340 nm). IC50 were generated using the curve-fitting tool of GraphPad Prism].
The resulting data of enzymatic kinetic (the constants of Michaelis-Menten) were determined by analysis of non-linear regression.

The record followed here is patent US20140343001A1, “INDOLE DERIVATIVES INHIBITORS OF ENZYME LACTATE DEHYDROGENASE (LDH)” (Universitá di Pisa, priority 2011, published 2014).

As usually defined, the IC50 is the concentration that inhibits the measured activity by half. Usually Ki stands for the dissociation constant of the complex between target and ligand, obtained from inhibition or displacement.

For `O=C(O)c1cc2c(C(F)(F)F)cc(-c3ccccc3)cc2n1O` [1-hydroxy-6-phenyl-4-trifluoromethyl-1H-indol-2-carboxylic acid, reference compound], the IC50 in the assay with H1299 was found to be 141 µM; with H226, 121 µM; in the assay with HeLa it was 44 µM; with IGROV-1, 123 µM; with MCF-7 it was 124 µM; in the assay with A549 cells, 60 µM. Also, the IC50 in the assay with H1975 is 57 µM.
Take `COC(=O)c1cc2c(C(F)(F)F)cc(-c3ccc(Cl)cc3Cl)cc2n1O` [Example 8, methyl 6-(2,4-dichlorophenyl)-1-hydroxy-4-(trifluoromethyl)-1H-indole-2-carboxylate]: the “reduction of cellular production of lactate” value (shortened to “reduction”) in the assay on HeLa cells is “reduce effectively cellular production of lactate”. Moreover, the IC50 with HeLa was under 15 µM; with MCF-7 it was under 17 µM; with A549 cells, at most 31 µM; in the assay on H1975, at most 31 µM. Moreover, the Ki on hLDH5 (LDH-A) fell in the range of 1 to 10 µM.
Consider `COC(=O)c1cc2c(C(F)(F)F)cc(-c3ccc(Cl)cc3Cl)cc2n1O[C@@H]1O[C@H](CO)[C@@H](O)[C@H](O)[C@H]1O` [Example 10, methyl 6-(2,4-dichlorophenyl)-1-(β-D-glucopyranosyl)oxy-4-(trifluoromethyl)-1H-indole-2-carboxylate], for which the IC50 is under 15 µM with HeLa; under 17 µM in the assay on MCF-7; 50 to 500 µM at hLDH5 (LDH-A) (room temperature, read-out: inhibitory activity against hLDH5 (IC50)).
In the case of `CCOC(=O)c1cc2c(C(F)(F)F)cc(-c3ccccc3)cc2n1O` [Example 1, ethyl 1-hydroxy-6-phenyl-4-(trifluoromethyl)-1H-indole-2-carboxylate], the “reduction” value with HeLa cells is on record as “reduce effectively cellular production of lactate”. For the same compound, the concentration for half-maximal inhibition (IC50) was under 40 µM in the assay with H1299; under 26 µM with H226; under 17 µM with HeLa; under 31 µM with IGROV-1; under 35 µM with MCF-7; at most 31 µM with A549 cells. For the same compound, the 50% inhibitory concentration (IC50) in the assay with H1975 is at most 31 µM. Besides, on hLDH5 (LDH-A), the Ki fell in the range of 1 to 10 µM.
For the compound `CCOC(=O)c1cc2c(C(F)(F)F)cc(-c3ccc(Cl)cc3Cl)cc2n1O` [Example 9, ethyl 6-(2,4-dichloropheyl)-1-hydroxy-4-(trifluoromethyl)-1H-indole-2-carboxylate], the “reduction” value in the assay on HeLa cells is on record as “reduce effectively cellular production of lactate”. The IC50 with A549 cells and in the assay with H1975 was at most 31 µM in each case. Further, at hLDH5 (LDH-A), the Ki is 1 to 10 µM.
On to `COC(=O)c1cc2c(C(F)(F)F)cc(-c3ccccc3)cc2n1O[C@@H]1O[C@H](CO)[C@@H](O)[C@H](O)[C@H]1O` [Example 3, methyl 6-phenyl-1-(β-D-glucopyranosyl)oxy-4-(trifluoromethyl)-1H-indole-2-carboxylate], for which, in the assay with HeLa cells, the “reduction” value is “reduce effectively cellular production of lactate”. Besides, the IC50 is under 40 µM in the assay with H1299; under 26 µM in the assay on H226; under 17 µM with HeLa; under 31 µM in the assay on IGROV-1; under 35 µM with MCF-7; at most 31 µM in the assay on A549 cells. Besides, the IC50 with H1975 was at most 31 µM.
